According to PMC8607422, “Development of a novel TLR8 agonist for cancer immunotherapy” (Molecular Biomedicine, 2020):
Read-outs that look alike come from different tables or passages of the source.

What was measured:
[1] = target: T1, hTLR9 (Homo sapiens, UniProt Q9NR96); assay: HEK-Blue hTLR9 SEAP reporter agonist assay; assay type: cell-based; settings: HEK-Blue hTLR9 cells, highest concentration 50 μM
T1 construct: host or cells: HEK-Blue hTLR9
T1 sequence (Q9NR96 26-1032): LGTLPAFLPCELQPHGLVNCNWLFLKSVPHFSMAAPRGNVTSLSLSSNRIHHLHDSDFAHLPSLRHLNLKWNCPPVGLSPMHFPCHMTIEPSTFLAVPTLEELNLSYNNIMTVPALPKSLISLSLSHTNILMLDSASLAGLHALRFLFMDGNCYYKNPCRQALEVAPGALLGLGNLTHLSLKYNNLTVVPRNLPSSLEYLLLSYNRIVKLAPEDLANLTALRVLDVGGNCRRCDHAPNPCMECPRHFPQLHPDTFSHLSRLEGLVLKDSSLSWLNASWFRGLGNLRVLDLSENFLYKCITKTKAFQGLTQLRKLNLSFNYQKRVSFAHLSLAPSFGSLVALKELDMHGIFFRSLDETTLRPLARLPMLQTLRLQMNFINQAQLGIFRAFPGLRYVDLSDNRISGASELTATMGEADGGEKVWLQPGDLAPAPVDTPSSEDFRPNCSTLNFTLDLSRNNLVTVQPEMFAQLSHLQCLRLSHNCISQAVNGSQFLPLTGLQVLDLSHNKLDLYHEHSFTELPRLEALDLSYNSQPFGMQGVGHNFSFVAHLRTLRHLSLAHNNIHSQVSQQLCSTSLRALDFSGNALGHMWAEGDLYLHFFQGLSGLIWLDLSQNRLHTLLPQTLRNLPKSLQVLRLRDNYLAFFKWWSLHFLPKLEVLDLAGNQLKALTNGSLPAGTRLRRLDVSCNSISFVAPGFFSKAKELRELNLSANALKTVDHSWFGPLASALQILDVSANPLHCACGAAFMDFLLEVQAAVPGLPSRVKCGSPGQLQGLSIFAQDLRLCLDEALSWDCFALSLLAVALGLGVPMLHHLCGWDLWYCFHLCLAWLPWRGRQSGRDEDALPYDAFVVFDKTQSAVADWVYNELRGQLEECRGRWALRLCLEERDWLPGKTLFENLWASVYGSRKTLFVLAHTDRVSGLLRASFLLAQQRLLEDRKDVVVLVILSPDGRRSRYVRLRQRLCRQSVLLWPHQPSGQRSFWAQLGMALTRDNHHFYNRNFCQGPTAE
Text: HEK-Blue™ hTLR4, 7, 8 and 9 cell lines were purchased from InvivoGen (Hong Kong). The cells express the human TLR gene and NF-κB/AP-1-inducible SEAP (secreted embryonic alkaline phosphatase) reporter gene. SEAP levels produced upon TLR stimulation can be determined by QUANTI-Blue™. In the cell-based assay, the main reagents used were QUANTI-Blue™ (InvivoGen) and ATPlite 1 Step (Perkin Elmer). The main instruments used were the microplate reader SpectraMax 340PC (Molecular Device) and Envision (Perkin Elmer). Motolimod and DN052 were synthesized in house. […] The compounds were in 10 mM stock solution in DMSO and stored at − 20°C. The compounds were serially diluted in the concentration range from 0.5 nM to 15 μM (up to 50 μM in the hTLR4, hTLR7 and hTLR9 assays) and added to 96-well plates. DMSO was used as the negative control. LPS-EK, R848, motolimod and ODN2006 were used as the positive control for TLR4, 7, 8 and 9, respectively. The cells were cultured and treated with the compounds at 37°C, 5%CO2 for 24 h. […] After 1.5 h of incubation, the optical density was measured using the spectrophotometer at 650 nm in the microplate reader of SpectraMax 340PC. The cell viability of each well was determined using ATPlite 1 Step following the manufacturer’s instruction. The luminescence signal in each well of plates was measured in the microplate reader of Envision.

[2] = test system: T2, hERG potassium channel; assay: Eurofins Cerep44 off-target panel; settings: human; 10 μM compound; >50% considered significant; read-out: effect on potassium channel hERG in Cerep screen (% inhibition of binding)
T2 construct: purchased Eurofins Cerep44 panel
Protocol: Compound binding was calculated as a % inhibition of the binding of a radioactively labeled ligand specific for each target. Compound enzyme inhibition effect was calculated as a % inhibition of control enzyme activity.

[3] = test system: HL-60 cells; assay: Nitroblue Tetrazolium (NBT) cell differentiation assay; assay type: cell-based; settings: Homo sapiens, unit from concentration axis
Text: Supplementary file 43556_2020_7_MOESM1_ESM.pdf: Additional file 1: Supplementary Fig. 1. […] Suplementary Fig. 2. […] Supplementary Fig. 3. Nitroblue Tetrazolium (NBT) cell differentiation assay. […] Supplementary Fig. 4. Representative data from human PBMC assay. […] Similar results were obtained from two different donors.

[4] = test system: human peripheral blood mononuclear cells (PBMCs); assay: Ex vivo human PBMC cytokine induction assay; assay type: cell-based; settings: 24 h
Protocol: Briefly, PBMCs were isolated from fresh human blood (Chempartner, Shanghai, China). 2 × 10^5/100 μL/well hPBMCs were plated on 96-well cell culture plates. Serial dilutions of compounds with concentration range from 2 nM to 30 μM were added in duplicate wells. LPS was included as a control. The plate was incubated in a 37°C, 5% CO2 incubator for 24 h. The supernatant was harvested for cytokine detection using MILLIPLEX MAP Human Cytokine/Chemokine Magnetic Bead Panel - Immunology Multiplex Assay (Millipore) following the manufacturer’s protocol. Cytokines including TNF-α, IFN-α2, IL-1α, IL-1β, IL-6, IL-8, IL-10, IL-12p40, IL-12p70, MIP-1α, MIP-1β, G-CSF and IFN-γ were measured.

EC50 [1]: > 50000 nM | EC50 [3]: 1430 nM
Structure (SMILES): CCCN(CCC)C(=O)C1=Cc2ccc(-c3ccc(C(=O)N4CCCC4)cc3)cc2N=C(N)C1 [Motolimod, motolimod]
inhibition at 10 µM [2]: 59.2% | EC50 ([4]; Donor 1, 24 h, read-out: EC50 G-CSF induction): 841 nM | EC50 ([4]; Donor 1, 24 h, read-out: EC50 IFN-α2 induction): 1330 nM | EC50 ([4]; Donor 1, 24 h, read-out: EC50 IFN-γ induction): 4160 nM | EC50 ([4]; Donor 1, 24 h, read-out: EC50 IL-1α induction): 849 nM | EC50 ([4]; Donor 1, 24 h, read-out: EC50 IL-1β induction): 665 nM | EC50 ([4]; Donor 1, 24 h, read-out: EC50 IL-6 induction): 424 nM | EC50 ([4]; Donor 1, 24 h, read-out: EC50 IL-8 induction): 504 nM | EC50 ([4]; Donor 1, 24 h, read-out: EC50 IL-10 induction): 304 nM | EC50 ([4]; Donor 1, 24 h, read-out: EC50 IL-12(p40) induction): 447 nM | EC50 ([4]; Donor 1, 24 h, read-out: EC50 IL-12(p70) induction): 285 nM | EC50 ([4]; Donor 1, 24 h, read-out: EC50 MIP-1α induction): 277 nM | EC50 ([4]; Donor 1, 24 h, read-out: EC50 MIP-1β induction): 277 nM | EC50 ([4]; Donor 1, 24 h, read-out: EC50 TNF-α induction): 321 nM | EC50 ([4]; Donor 2, 24 h, read-out: EC50 G-CSF induction): 461 nM | EC50 ([4]; Donor 2, 24 h, read-out: EC50 IFN-α2 induction): 344 nM | EC50 ([4]; Donor 2, 24 h, read-out: EC50 IFN-γ induction): 1660 nM | EC50 ([4]; Donor 2, 24 h, read-out: EC50 IL-1α induction): 348 nM | EC50 ([4]; Donor 2, 24 h, read-out: EC50 IL-1β induction): 556 nM | EC50 ([4]; Donor 2, 24 h, read-out: EC50 IL-6 induction): 439 nM | EC50 ([4]; Donor 2, 24 h, read-out: EC50 IL-8 induction): 502 nM | EC50 ([4]; Donor 2, 24 h, read-out: EC50 IL-10 induction): 191 nM | EC50 ([4]; Donor 2, 24 h, read-out: EC50 IL-12(p40) induction): 344 nM | EC50 ([4]; Donor 2, 24 h, read-out: EC50 IL-12(p70) induction): > 30000 nM | EC50 ([4]; Donor 2, 24 h, read-out: EC50 MIP-1α induction): 208 nM | EC50 ([4]; Donor 2, 24 h, read-out: EC50 MIP-1β induction): 248 nM | EC50 ([4]; Donor 2, 24 h, read-out: EC50 TNF-α induction): 317 nM
